Entries after “also recorded” stand apart in the source; their conditions may differ. Square brackets hold non-standard residues; d marks the D form. Ends that are not written are not given here. * marks the point of attachment. S3 = D-Pra clicked to acylated azidolysine-PEG2-biotin, with 5-azido-pentanoic acid; 5FAM = O=C1OC2(c3ccc(O)cc3Oc3cc(O)ccc32)c2ccc(C(=O)*)cc21; 5‑azidopentanoyl = [N-]=[N+]=NCCCCC(=O)*; Lys(N3) = [N-]=[N+]=NCCCC[C@H](N)C(=O)O; Peg2 = PEG spacer (Fmoc-NH-(PEG)2-OH); dPra = C#CC[C@@H](N)C(=O)O; Ahx = NCCCCCC(=O)O
Key:
Akt2 [1] = molecular target: T1, Akt2 (Homo sapiens, UniProt P31751); settings: read-out: equilibrium dissociation constant KD; SPR, Akt2 protein as analyte, 1:1 binding model, 10° C.
Method: A Biacore T100 machine was used for SPR experiments. A Streptavidin Chip (Series S, G.E. Healthcare) was conditioned as per manufacturer's recommendation. A stock of 1 mM biotinylated ligand was diluted into HBSP+ Buffer (G.E. Healthcare) to a final concentration of 100 nM and ˜150 RU was immobilized on the chip. Serial dilutions of the Akt2 protein were made in HBSP+ buffer for the experiment with the immobilized N-tL. The solution was flowed over the chip at 50 μL/min. Binding and dissociation were carried out at 10° C. with a contact time of 350 sec, a dissociation time of 390 sec, and a stabilization time of 200 sec, with buffer blanks between each concentration. The response was double corrected, using an unmodified reference flow cell and the response for the 0 concentration of Akt2 on the sample flow cell. The data was fitted to the kinetic Langmuir 1:1 binding model using the Biacore Evaluation software for T100 to calculate the dissociation constant.

Akt2 [2] = molecular target: T1, Akt2; assay: Single component ELISA, PCC agent as capture or detection agent (relative affinity); assay type: binding; parameters: purchased Abcam
Source text: FIG. 23: A. ELISA assays in which the PCC Agents are utilized as either as surface-localized capture agents (for N-tL, C-tL) or as the detection agent (for mono-L, bi-L). Such assays provide relative affinity measurements, which are given as EC50 values in the key. […] C. C-tL distinguishes the full length Akt2 from isoform proteins Akt1 and Akt3. D. The 32 amino acid long C terminal fragment from Akt2, Akt1 and Akt3. The hydrophobic motif is highlighted in blue. pS refers to phospho-serine. […] F. Selectivity assays: Biotinylated ligands or biotinylated pS473 antibody is immobilized on streptavidin-agarose and treated with OVCAR3 cell lysate. The eluents are stained with a pan-Akt antibody or pS473 Akt antibody.
1.25 μM biotinylated ligand was prepared by diluting the 1 mM stock in binding buffer (25 mM tris chloride, pH=7.4, 150 mM NaCl, 0.1% BSA, 0.05% Tween 20). The prepared ligand solution or 0.125% DMSO in buffer (buffer control) was immobilized on a High Capacity Streptavidin 96 well plate (Thermo Scientific). After washing away the excess ligand, the plate was blocked overnight with 1% BSA/25 mM tris chloride, pH=7.4/150 mM NaCl, 0.05% Tween 20. 2.5 μM solutions of the His6 (SEQ ID NO:28) tagged target phosphopeptide epitope Akt2 amino acids 450-481, His6 (SEQ ID NO:28) tagged Akt1 amino acids 449-480, His6 (SEQ ID NO:28) tagged Akt3 amino acids 448-479 were added to each of the wells. Following three washes with the binding buffer, the plate was treated for an hour with a 1:1000 dilution of anti His6 (SEQ ID NO:28) mouse monoclonal antibody. A 1:10,000 dilution of goat anti mouse antibody-Horse Radish Peroxide conjugate in binding buffer was added to the wells. The plates were washed four times, five minutes each, with 0.05% Tween 20/TBS (25 mM tris chloride, pH=7.5, 150 mM NaCl) and once with TBS (25 mM tris chloride, pH=7.5, 150 mM NaCl). Color was developed by adding TMB substrate (KPL) to each well. The reaction was quenched with 0.5 M H2SO4. The A450 measured on a 96-well plate reader. The Net A450 was obtained by subtracting the absorbance value for the blank control (no immobilized ligand) from each of the triplicate values obtained for the ligand-epitope interaction. The selectivity assay with full length His6 (SEQ ID NO:28) tagged Akt1, Akt2 and Akt3 was performed following the same protocol, using 25 nM protein instead of 2.5 μM His6 tagged peptide epitope.

Akt = molecular target: T2, Akt (Homo sapiens, UniProt P31751); assay: OVCAR3 lysate pull-down (immunoprecipitation) assay; assay type: binding; settings: for immunoprecipitation of Akt from OVCAR3 cell lysate: eluents stained with pan-Akt antibody
T2 construct: endogenous in cells; host or cells: OVCAR3
Method: OVCAR3 cells (ATCC) were grown in RPMI-1640 media containing 20% fetal bovine serum. Passage three cells were grown to ˜80% confluence. Cells were lysed with lysis buffer (10 mM Tris-Cl (pH=7.5), 100 mM NaCl, 1% (v/v) Triton X-100, 0.1% SDS (w/v), 0.5% deoxycholate, 1 mM DTT, 1 mM EDTA, 1× PhosStop phosphatase inhibitors (Roche), 1× Complete protease inhibitors (Roche)) and the amount of protein measured using BCA Protein Assay Kit (Pierce Biotechnologies, Inc). Streptavidin-agarose resin solution (EMD) was swelled in TBST (25 mM tris chloride, pH=7.5, 150 mM NaCl, 0.05% Tween-20). Each of the biotinylated ligands was immobilized on the Streptavidin-agarose resin by adding 7.2 μL of 1 mM ligand stock (DMSO) to 10 μL of the swelled streptavidin-agarose resin. For the blank control, the resin was treated with 7.2 μL of 1 mM biotinylated acyl glycine. […] After shaking overnight at 4° C., 50 μM D-biotin was added to the resin to block any remaining sites. The resin was washed with TBST five times, for fifteen minutes each. The resin was then swelled in binding buffer for two hours. To each of the immobilized ligands, 200 μL OVCAR3 cell lysate (1.9 mg/ml) was added. The tubes were shaken at 4° C. for 18 hours. The beads were extensively washed, three times for fifteen minutes in binding buffer, three times (fifteen minutes) in TBST, and three times (fifteen minutes) in TBS to remove unbound proteins. The resin bound proteins were eluted by adding 40 μL of 2×SDS-PAGE sample loading buffer (BioRad) and heating at 95° C. for five minutes. A 1:10 diluted sample of lysate in sample loading buffer was prepared by mixing 1 μL of the sample with 9 μL sample loading buffer and denaturing the sample by heating at 95° C. for five minutes. 10 μL of each sample was loaded on a 12% SDS-PAGE gels (BioRad) and run for 80 minutes at 110 volts. Three identical gels were loaded and run at the same time. One gel was used for Coomassie staining with Coomassie Fluor Orange Protein Gel Stain (Molecular Probes) following the manufacturer's protocol. The two other gels were transferred to nitrocellulose membranes by the semidry transfer method, blocked for two hours at 4° C. with 5% non-fat milk, and treated overnight at 4° C. with a 1:1000 dilution of pan-Akt rabbit monoclonal antibody (Cell Signaling Technology) and a 1:1000 dilution of pS473 Akt rabbit monoclonal antibody (Cell Signaling Technology), respectively, in 0.5% non-fat milk. The membranes were washed and treated for an hour with a 1:10,000 dilution of monoclonal mouse anti-rabbit-HRP secondary antibody (Cell Signaling Technology) in 0.5% milk. After five washes of five minutes each with TBST and one wash of five minutes with TBS, the blots were developed with West Dura ECL substrate (Thermo Scientific) and imaged on film.

Akt2 [3] = molecular target: T1, Akt2; assay: Non-radioactive kinase assay, phosphorylation of GSK-3α/β fusion protein; assay type: biochemical; parameters: purchased Abcam; settings: relative to DMSO control
Method: The non-radioactive kinase assay kit for Akt2 was purchased from Cell Signaling. Ligand solutions were made in DMSO. Kinase reactions were set up in 1× kinase buffer (25 mM trisHCl (pH 7.5), 10 mM MgCl2, 0.01% Triton-X, 1× Complete protease inhibitor (Roche), 1× Phosstop phosphatase inhibitor (Roche)), each 25 μL reaction mixture containing 400 ng Akt2, 400 ng GST-GSK-3α/β fusion protein, […] and 0.5 μL of peptide solutions in DMSO or DMSO only. Reactions were allowed to proceed for 30 minutes at 30° C. A reaction mixture was also prepared using a 1:2.5 dilution of anti pS473 antibody (Cell Signaling) in the kinase buffer instead of the peptide ligand or DMSO. The reactions were quenched by adding 12.5 μL of 2×SDS sample loading buffer and heating at 95° C. for five minutes. 10 μL from each sample was loaded on an any kD SDS gel (BioRad) and run for an hour at 110 volts. Following semidry transfer of the gel to a nitrocellulose membrane, the membrane was blocked in 5% nonfat milk/TBST for an hour at 4° C., and treated overnight at 4° C. with a 1:200 dilution of Phospho GSK-3α/β Ser (21/9) rabbit antibody (Cell Signaling) in 0.5% milk/TBST. Following washes, the membrane was treated with a 1:2000 dilution of mouse anti-rabbit-HRP antibody for an hour at 4° C. After four five minute washes with TBST, and one five minute wash with TBS, the membrane was treated with West Dura ECL substrate (Thermo Scientific) and imaged on film.

SKOV3 cells = assay: XTT cell viability assay; assay type: cell-based; settings: 50 μM
Method: (§1) The XTT assay kit was purchased from Cell Signaling Technology (#9095) and used according to manufacturer protocol. Briefly, 1×10^4 cells were seeded in a 96-well plate. The following day, cells were serum starved and treated with capture agent. Following treatment, the XTT tetrazolium salt was added to the media and after 1 hour the absorbance at 450 nm was measured in a 96-well plate reader.

OVCAR3 cells = assay: XTT cell viability assay; assay type: cell-based; settings: 50 μM
Method: as §1

[4] = test system: SKOV3 ovarian cancer cells; assay: Western blots of treated SKOV3 cells (Akt signaling pathway); assay type: cell-based
Method: Western blots were performed according to standard protocols. Briefly, cells were lysed with cell lysis buffer (Cell Signaling Technology) containing protease and phosphatase inhibitors (Cell Signaling Technology). Cell lysates were quantified with a Bradford protein assay (Thermo Scientific) and prepared for gel electrophoresis in Laemmli sample buffer and reducing agent. 20 μg of cell lysate were added to precast polyacrylamide gels (Bio-Rad) and proteins were separated by electrophoresis followed by transfer to PVDF membrane. Membranes were then blocked and probed with primary antibodies followed by horseradish peroxidase-conjugated secondary antibodies. The following antibodies were used according to manufacturer protocol: p-GSK3β (Cell Signaling, 9323), GSK3 β (Cell Signaling, 12456), AKT (Cell Signaling, 4691), p-AKT (S473) (Cell Signaling, 4060), Actin (Cell Signaling, 8456), HRP-linked Anti-rabbit IgG (Cell Signaling, 7074). The bands were visualized by chemiluminescence (Thermo Scientific).

T2 sequence (P31751 whole entry): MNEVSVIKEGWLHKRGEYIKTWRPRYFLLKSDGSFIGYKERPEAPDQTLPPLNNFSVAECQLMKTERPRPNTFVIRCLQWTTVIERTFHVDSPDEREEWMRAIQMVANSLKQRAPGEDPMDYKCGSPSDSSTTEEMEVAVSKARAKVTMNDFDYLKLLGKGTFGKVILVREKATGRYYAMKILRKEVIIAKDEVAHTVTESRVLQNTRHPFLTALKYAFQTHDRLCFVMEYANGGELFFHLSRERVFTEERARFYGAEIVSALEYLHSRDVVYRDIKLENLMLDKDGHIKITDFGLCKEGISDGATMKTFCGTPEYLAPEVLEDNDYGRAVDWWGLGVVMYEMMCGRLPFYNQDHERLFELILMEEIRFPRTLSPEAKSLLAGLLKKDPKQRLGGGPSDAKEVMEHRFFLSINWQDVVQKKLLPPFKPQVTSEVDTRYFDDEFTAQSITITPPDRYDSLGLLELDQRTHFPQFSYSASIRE
T1 sequence (P31751 whole entry): as above

Molecule	Kd (Akt2 [1]) [µM]	EC50 (Akt2 [2]; read-out: EC50 from single component ELISA) [µM]	affinity (Akt2 [2]; strongest binding triligand) [nM]	immunoprecipitation of phosphorylated Akt from OVCAR3 cell lysate (Akt; eluents stained with pS473 Akt antibody)	immunoprecipitation of Akt from OVCAR3 cell lysate (Akt)	immunoprecipitation of Akt from OVCAR3 cell lysate (Akt; listed as N-tri1)	influence on Akt2 kinase activity (p-GSK-3α/β level) (Akt2 [3])	cell viability (XTT) (SKOV3 cells)	cell viability (XTT) (OVCAR3 cells)	p-Akt level ([4]; 50 μM, time course)	p-GSK-3β level ([4]; 50 μM, time course)	phospho-GSK-3β level after pretreatment and EGF stimulation ([4]; 50 μM, 1, 6 and 12 hours pretreatment, then EGF 10 minutes)	phospho-GSK-3β level after pretreatment and EGF stimulation ([4]; 50 μM, 24 hours pretreatment, then EGF)
CC(=O)NC(CCCCn1cc(C[C@@H](NC(=O)[C@H](CCCCn2cc(C[C@@H](NC(=O)[C@@H](Cc3ccccc3)NC(=O)[C@@H](Cc3ccc(O)cc3)NC(=O)CNC(=O)[C@@H](CC(N)=O)NC(=O)[C@@H](Cc3c[nH]cn3)NC(=O)[C@H](CCCCn3cc(C[C@@H](NC(C)=O)C(=O)N[C@H](Cc4ccc(O)cc4)C(=O)N[C@H](Cc4ccc(O)cc4)C(=O)N[C@H](CCCNC(=N)N)C(=O)N[C@H](Cc4ccccc4)C(=O)NCC(N)=O)nn3)NC(C)=O)C(=O)O)nn2)NC(C)=O)C(=O)N[C@H](Cc2c[nH]c3ccccc23)C(=O)N[C@H](CCCCN)C(=O)N[C@@H](C(=O)N[C@H](CCCCN)C(=O)N[C@H](CC(C)C)C(N)=O)C(C)C)nn1)C(=O)NCCOCCOCCOCCC(=O)NCCNC(=O)CCCC[C@@H]1SC[C@@H]2NC(=O)N[C@@H]21 (some centres unmarked) [N-tL]	0.025	0.019	~20	immunoprecipitate comparable amounts of active pS473 Akt	immunoprecipitates more Akt, irrespective of its phosphorylation state	more efficient; also recorded: immunoprecipitate Akt2 from OVCAR3 cells	activate Akt above baseline; also recorded: activate Akt2	–	–	–	–	–	–
tri_a: Akt-activating N-terminal triligand, conjugated to HIV TAT peptide via PEG spacers for cell assays (FIG. 28, 33A) (peptide 1 WKVKL; peptide 2 HNGYF; peptide 3 XYYRFG; peptide 4 GRKKRRQRRRPPQQ; not fully specified; D-residues; non-natural residues)	–	–	–	–	–	–	activate	significant increase in viability after 1 day treatment followed by a decline; also recorded: initial spike in cell viability after 24 hours, followed by a linear decrease with time	significant increase in viability after 1 day treatment followed by a decline; also recorded: sharp increase after 24 hours is followed by a steady decrease before finally stabilizing	initially increases and then steadily decreases over time	highest level of GSK3B phosphorylation is seen after 1 hour treatment; also recorded: clear increase in the p-GSK-3β level relative to the untreated and EGF-stimulated cells	–	–
tri_i: Akt-inhibiting C-terminal triligand, TAT-modified, with fluorescein label (FIG. 31, 35a) (peptide 1 Ac-[Lys(N3)][dH][dD]GG[dF]; peptide 2 S3-[dW][dK][dV][dK]; peptide 3 {5FAM-Ahx-Cys-Peg2}-[dH][dN]G[dY][dF][dPra]; peptide 4 {5‑azidopentanoyl-Peg2}-GRKKRRQRRRPPQQ-NH2; not fully specified (C-terminus); also: arms joined by triazoles, fluorescein label (Peg2-Cys-Ahx-5-carboxyfluorescein) coupled via DBCO-maleimide to TAT)	–	–	–	–	–	–	inhibit	significant decrease in viability after 1 day treatment; also recorded: initial drop in cell viability and remain consistently lower than untreated cells for 5 days	significant decrease in viability after 1 day treatment; also recorded: initial drop in cell viability after 24 hours, followed by an increase before finally decreasing again	–	–	less phospho-GSK-3β than EGF stimulation alone; also recorded: less phospho-GSK3-β than untreated cells stimulated with EGF alone	dramatic increase in levels of phospho-GSK3-β

— patent publication US11371994B2, “Phosphorylated Akt-specific capture agents, compositions, and methods of using and making” (California Institute of Technology, priority 2013, dated 2022)
